The test system of experiment [1] is CD62P (P-selectin) surface expression on platelets. The experiment can be described thus: Whole blood flow cytometry of platelet CD62P surface expression (α-granule release). Type of experiment: cell-based. The following applies: for median PE fluorescence (CD62P) / frequency of CD62P expression (CD62P+ platelets): Example 1; for CD62P expression: Example 2, iloprost 0.5 μM where added, mean of 3 subjects; for MFI Over Time (CD62P, all platelet events): Example 3, 10 subjects. An excerpt:
(§1) Platelet activation can result in a robust and rapid release of α-granules, dense granules, and lysosomes, the contents of which serve to promote a variety of autocrine and paracrine signal transduction events. CD62P (P-selectin) is an adhesion molecule that is transiently expressed on the platelet plasma membrane following α-granule release and can mediate platelet-leukocyte aggregates via ligation with leukocyte expressed P-selectin glycoprotein ligand 1 (PSGL-1/CD162). Dense granule and lysosome release can be measured, although not distinguished, with CD63 surface expression.
(§2) The effect of EDTA on platelet activation, as judged by CD62P and CD63 surface expression, was evaluated in the presence or absence of the platelet stabilization agent (iloprost). Whole blood was collected into tubes containing EDTA or EDTA with iloprost at 0.5, 5 and 50 μM final concentration. Antibody cocktails containing previously determined amounts of αCD61 PerCP, αCD62P PE, αCD63 Alexa Fluor® 647, and/or appropriate isotype controls were added to a conical bottom micro titer plate. A modified HEPES-Tyrode's buffer was used to equilibrate the final volume to 100 μL for each staining reaction. Platelet surface staining was performed by adding 5 μL of whole blood to the appropriate staining mix and incubating at RT under dark conditions for 15 minutes. Afterwards, the entire reaction was transferred to 5 mL round bottom polystyrene snap cap tubes containing 1 mL of HEPES-Tyrode's buffer for a final dilution of each sample. Samples were briefly vortexed and data was acquired using a BD FACScalibur instrument. FSC and SSC settings were established on the log scale in order to discern platelet size and morphology from RBC and WBC populations. In order to further discriminate platelet-specific events, a PerCP alone control was used to establish a CD61^+ gate. Since CD63 is not a platelet specific marker it was necessary to further gate on the single platelet morphology population to avoid a CD63 signature from the platelet-bound leukocytes. The PerCP alone control was also used to set fluorescence detector voltages for CD62P^−/CD63^− populations. Once voltage and compensation settings were finalized, 10,000 CD61^+/single platelet events were acquired for each test sample.
The effect of iloprost on platelet activation was studied in the presence of strong platelet-activating agents, ADP and thrombin-receptor activating peptide (TRAP). Platelet stimulations were performed by adding 300 μL blood to micro-centrifuge tubes containing 10 μL of saline (0.85%), ADP, or TRAP-6 and incubating for approximately 2 min at RT. Final concentrations of ADP and TRAP-6 were 6.5 μM and 32 μM, respectively. Afterwards, whole blood flow cytometry was performed as described above. Blood collection and flow cytometry was performed as described in example 1.
The effect of iloprost on platelet degranulation was measured in EDTA and EDTA/protease inhibitor background. Whole blood was collected into tubes containing EDTA, EDTA with iloprost, a protease inhibitor cocktail (“PIC”, which included one protease inhibitor from each class of inhibitor described in Table II in U.S. Pat. No. 7,309,468), and the cocktail with iloprost. Whole blood flow cytometry to measure CD62P expression was performed as described in example 1.
(In flow cytometry, cells or beads pass a laser one at a time.)

In experiment [2] the test system is CD63 surface expression on platelets. The experiment can be described thus: Whole blood flow cytometry of platelet CD63 surface expression (dense granule/lysosome release). Type of experiment: cell-based. The following applies: Example 2; for CD63 surface expression: EDTA without iloprost.
From the text: as §1
as §2, with “Since CD63 is not a platelet specific marker it was necessary to further gate on the single platelet morphology population to avoid a CD63 signature from the platelet-bound leukocytes.” left out, “Once voltage and compensation settings were finalized, 10,000 CD61^+/single platelet events were acquired for each test sample.” left out

For experiment [3], the target named is acetylcholinesterase (AChE) (Homo sapiens, UniProt P22303). The following applies: read-out: Ki for AChE; cited from earlier work.
For experiment [4], the system named is platelet-leukocyte aggregates. The experiment can be described thus: Leukocyte-platelet aggregates by flow cytometry (αCD61/αCD45). The following applies: t=0, 4, 24 and 144 hr of sample dwell; versus EDTA alone; 6 subjects. Type of experiment: cell-based. An excerpt: Blood was collected as described in example 1. Antibody cocktails containing previously determined amounts of αCD61 (platelet marker), αCD45 (leukocyte marker) and/or appropriate isotype controls were used to detect the platelet-leukocyte aggregates at t=0, 4, 24 and 144 hr of sample dwell with the use of flow cytometry as described in example 1. […] Data representative of 6 subjects.

Experiment [5] deals with platelets (platelet clumping). The experiment can be described thus: Complete blood count and hematology parameters, Sysmex XE-2100. Type of experiment: cell-based. The settings on record: compared to EDTA alone.
The test system of the next experiment is PDGFa/a. The experiment can be described thus: Plasma biomarker release, ELISA. Type of experiment: cell-based. The following applies: 0, 2, 8 and 24 hr sample dwell; relative to EDTA alone. The protocol:
(§3) Blood was collected as described in example 1. Plasma was prepared at indicated timepoints (0, 2, 8 and 24 hr sample dwell) by centrifuging the tubes at 3000 rcf for 10 min. and was used to measure levels of PDGFa/a, TGFβ1, VEGF, IL-8 (CXCL8), and RANTES (CCL5) using commercially available ELISA kits, per manufacturer's instructions.
For orientation: ELISA stands for enzyme-linked immunosorbent assay.

For another experiment, the system named is VEGF. The experiment can be described thus: Plasma biomarker release, ELISA. Type of experiment: cell-based. The following applies: 0, 2, 8 and 24 hr sample dwell; relative to EDTA alone. The protocol: as §3
The test system of a further experiment is RANTES (CCL5). The experiment can be described thus: Plasma biomarker release, ELISA. Type of experiment: cell-based. The following applies: 0, 2, 8 and 24 hr sample dwell; relative to EDTA alone. As to the method:
as §3

The next experiment relates to IL-8 (CXCL8). The experiment can be described thus: Plasma biomarker release, ELISA. Type of experiment: cell-based. The following applies: EDTA with iloprost versus EDTA alone. The protocol:
as §3

For a further experiment, the system named is TGFβ1. The experiment can be described thus: Plasma biomarker release, ELISA. Type of experiment: cell-based. The settings on record: 0, 2, 8 and 24 hr sample dwell; relative to EDTA alone. The protocol:
as §3

Setting [6] is: whole blood in EDTA, iloprost 0.5 μM.
[7] abbreviates: whole blood in EDTA, iloprost 5 μM.
The mark [8] stands for this setting: whole blood in EDTA, iloprost 50 μM.

acetylcholinesterase (AChE), sequence (P22303 32-614, species assumed): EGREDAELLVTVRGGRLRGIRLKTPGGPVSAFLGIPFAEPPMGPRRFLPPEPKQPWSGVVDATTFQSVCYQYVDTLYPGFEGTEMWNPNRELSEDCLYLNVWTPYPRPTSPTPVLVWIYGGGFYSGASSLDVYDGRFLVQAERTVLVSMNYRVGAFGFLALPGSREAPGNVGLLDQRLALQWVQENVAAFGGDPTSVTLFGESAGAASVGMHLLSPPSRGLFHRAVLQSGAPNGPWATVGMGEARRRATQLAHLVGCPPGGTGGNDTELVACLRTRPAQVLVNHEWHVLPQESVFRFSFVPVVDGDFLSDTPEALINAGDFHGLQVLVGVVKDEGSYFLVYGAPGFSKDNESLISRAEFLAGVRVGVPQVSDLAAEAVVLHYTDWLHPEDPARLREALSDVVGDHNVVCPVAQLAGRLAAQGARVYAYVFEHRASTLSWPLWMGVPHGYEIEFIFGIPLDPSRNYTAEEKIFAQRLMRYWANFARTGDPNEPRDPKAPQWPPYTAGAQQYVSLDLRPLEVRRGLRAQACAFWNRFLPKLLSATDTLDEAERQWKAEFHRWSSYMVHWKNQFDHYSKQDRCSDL

Take `O=C(O)CN(CCN(CC(=O)O)CC(=O)O)CC(=O)O` [EDTA, Ethylenediamine tetraacetic acid]: the “median PE fluorescence (CD62P)” value in experiment [1] (whole blood in EDTA alone) came out at 44.7. In addition, in experiment [1] (whole blood in EDTA alone, no iloprost), the “frequency of CD62P expression (CD62P+ platelets)” value is 44.7%. In addition, the CD62P expression in [1] (ADP 6.5 μM activated) stood at 85.1%; in experiment [1] (TRAP-6 32 μM activated) it was 99.4%; in experiment [1] (resting samples (saline)) it was 44.6%. Further, the “MFI Over Time (CD62P, all platelet events)” value was 20.21 in [1] (0 hrs sample dwell), 42.66 in experiment [1] (2 hrs sample dwell), 33.14 in experiment [1] (8 hrs sample dwell) and 63.02 in [1] (24 hrs sample dwell). Moreover, the “MFI (CD62P, all platelet events)” value in [1] (Example 10, 5 subjects) worked out at 171.56. The CD63 surface expression in experiment [2] (ADP 6.5 μM) is reported as 7.67%; in experiment [2] (unstimulated), 2.13%. The same compound registered a CD63 expression in experiment [2] (TRAP-6 32 μM stimulated, iloprost 0.5, 5, 50 μM where added) of 69.3%.
The term Ki denotes a dissociation constant, usually derived from enzyme kinetics or from competition with a known ligand. `CCC1=CC2Cc3nc4cc(Cl)ccc4c(N)c3C(C1)C2` [Huprine X, (1S)-7-chloro-15-ethyl-10-azatetracyclo[11.3.1.0̂{2,11}.0̂{4,9}]heptadeca-2(11),3,5,7,9,14-hexane-3-amine]: the inhibition constant (Ki) in [3] was 0.026 nM.
For the compound `CC#CCC(C)[C@H](O)/C=C/[C@@H]1[C@H]2C/C(=C/CCCC(=O)O)C[C@H]2C[C@H]1O` (some centres unmarked) [iloprost], the “frequency of CD62P expression (CD62P+ platelets)” value in experiment [1] (setting [6]) was 15.0%; in [1] (setting [7]), 14.1%; in [1] (setting [8]) it was 13.9%. The entries for the “median PE fluorescence (CD62P)” value in experiment [1] (setting [6]), in experiment [1] (setting [7]) and in [1] (setting [8]) were 7.31, 7.12 and 7.06, respectively. In addition, the CD62P expression in experiment [1] (ADP 6.5 μM activated) turned out to be 17.3%; in experiment [1] (TRAP-6 32 μM activated) it was 33.4%; in [1] (resting samples (saline)) it was 15.0%. Further, in experiment [1] (Example 10, both EDTA and PIC backgrounds, 5 subjects), the “percentage of CD62+ events” value is “reduced”. For the same compound, in [4], the “percentage of leukocyte-bound platelets” value is “reduced”. Besides, the “mean platelet volume (MPV)” value in experiment [5] (p<0.001, Paired Test) is reported as “lower”. In addition, the “decrease in platelet clumps” value in experiment [5] (study of 300 normal healthy subjects) is 40%. Also, the “expression of PDGFa/a in plasma” value in the experiment with PDGFa/a is given as “reduced”. For the same compound, the “expression of VEGF in plasma” value in the experiment with VEGF is given as “reduced”. For the same compound, in the experiment with RANTES (CCL5), the “expression of RANTES in plasma” value is reported as “reduced”. Also, in the experiment on IL-8 (CXCL8), the “expression of IL-8 in plasma” value is on record as “similar”. In the experiment with TGFβ1, the “expression of TGFβ1 in plasma” value is “reduced”.
